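Five compound concentrations were applied to cells in 96-well plates for 48 hours; endpoints were derived by simple linear interpolation of the resulting dose-response curve. Definition used: TGI = concentration required for complete inhibition of growth.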
Experiments:
Assay in all cases: growth of human tumour cells (NCI), 48 h
[1] = system: IGROV1 ovarian
[2] = system: K-562 leukemia
[3] = system: BT-549 breast
[4] = system: OVCAR-3 ovarian
[5] = system: MDA-N
[6] = system: COLO 205 colon
[7] = system: OVCAR-8 ovarian
[8] = system: MOLT-4 leukemia
[9] = system: HOP-62 NSCLC
[10] = system: HOP-92 NSCLC
[11] = system: SK-MEL-28 melanoma
[12] = system: MALME-3M melanoma
[13] = system: UO-31 renal
[14] = system: SF-295 CNS
[15] = system: HT29 colon
[16] = system: EKVX NSCLC
[17] = system: LOX IMVI melanoma
[18] = system: SNB-75 CNS
[19] = system: KM12 colon
[20] = system: PC-3 prostate
[21] = system: SK-MEL-5 melanoma
[22] = system: TK-10 renal
[23] = system: SNB-19 CNS
[24] = system: 786-0 renal
[25] = system: M14 melanoma
[26] = system: SR leukemia
[27] = system: U251 CNS
[28] = system: HCC-2998 colon
[29] = system: NCI-H23 lung
[30] = system: T-47D breast
[31] = system: OVCAR-5 ovarian
[32] = system: ACHN renal
[33] = system: SK-OV-3 ovarian
[34] = system: CCRF-CEM leukemia
[35] = system: NCI-H226 lung
[36] = system: HCT-116 colon
[37] = system: SW-620 colon
[38] = system: SK-MEL-2 melanoma
[39] = system: OVCAR-4 ovarian
[40] = system: NCI/ADR-RES ovarian
[41] = system: NCI-H460 lung
[42] = system: HL-60(TB) leukemia
[43] = system: DU-145 prostate
[44] = system: HCT-15 colon
[45] = system: HS 578T breast
[46] = system: SF-539 CNS
[47] = system: CAKI-1 renal
[48] = system: SF-268 CNS
[49] = system: MCF7 breast
[50] = system: RPMI-8226 leukemia
[51] = system: A498 renal
[52] = system: RXF 393 renal
[53] = system: NCI-H522 lung
[54] = system: SN12C renal
[55] = system: A549 NSCLC
[56] = system: UACC-257 melanoma
[57] = system: MDA-MB-231 breast
[58] = system: MDA-MB-435
[59] = system: UACC-62 melanoma

Measured: TGI

Cc1cc(S(=O)(=O)Nc2cc(N)[nH]n2)c(SCc2nc(N)nc(N(C)C)n2)cc1Cl
> 10 µM: [1] | [2] | [3] | [4] | [5] | [6] | [7] | [8] | [9] | [10] | [11] | [12] | [13] | [14] | [15] | [16] | [17] | [18] | [19] | [20] | [21] | [22] | [23] | [24] | [25] | [26] | [27] | [28] | [29] | [30] | [31] | [32] | [33] | [34] | [35] | [36] | [37] | [38] | [39] | [40] | [41] | [42] | [43] | [44] | [45] | [46] | [47] | [48] | [49] | [50] | [51] | [52] | [53] | [54] | [55] | [56]

CCCCCCCCCCCCCCCCOCC(Cl)COP(=O)(O)OP(=O)(O)OCC1OC(n2cc(C)c(=O)[nH]c2=O)CC1O (centres undefined)
> 100 µM: [1] | [2] | [3] | [4] | [5] | [6] | [7] | [8] | [9] | [10] | [11] | [12] | [13] | [14] | [15] | [16] | [17] | [19] | [21] | [22] | [23] | [24] | [25] | [27] | [28] | [29] | [30] | [31] | [32] | [33] | [34] | [36] | [37] | [38] | [39] | [40] | [41] | [57] | [58] | [42] | [44] | [46] | [47] | [48] | [49] | [50] | [51] | [52] | [53] | [54] | [55] | [56]
80.5 µM: [35]
86.4 µM: [45]
71.8 µM: [18]
62.9 µM: [20]

CCC[C@H](NS(=O)c1ccc(C)cc1)C(C(=O)OCC)=C(c1ccccc1)c1ccccc1 (some centres undefined)
97.4 µM: [7]
35 µM: [58]
27.4 µM: [36]
36.5 µM: [41]
49 µM: [39]
33.6 µM: [17]
35.9 µM: [24]
30.4 µM: [15]
33.5 µM: [27] | [56]
46.1 µM: [6]
31.2 µM: [13]
48.5 µM: [46]
36.4 µM: [9]
31.5 µM: [59]
29.6 µM: [52]
36.1 µM: [12]
50.7 µM: [20]
48.3 µM: [3]
60.8 µM: [32]
55.1 µM: [53]
35.6 µM: [47]
43.4 µM: [31]
96 µM: [29]
97 µM: [22]
58 µM: [11]
40 µM: [14]
54.2 µM: [18]
33 µM: [10]
31.7 µM: [38]
88.6 µM: [30]
36.7 µM: [43]
75.8 µM: [1]
51.6 µM: [35]
44.4 µM: [21]
41.7 µM: [54]
71.2 µM: [45]
15.3 µM: [28]
38.6 µM: [16]
46 µM: [51]
51.2 µM: [25]
> 100 µM: [2] | [8] | [23] | [33] | [34] | [37] | [40] | [57] | [42] | [44] | [48]
43.2 µM: [5] | [49]
55.8 µM: [50]
37.8 µM: [19]
96.9 µM: [55]

— PubChem BioAssay (NCI)
